Data on seven compounds can be found in patent US20080280933A1, “BENZIMIDAZOLYL COMPOUNDS” (priority 2006, published 2008).

pEC50: −log10 of the molar value. Read-outs that look alike come from different tables or passages of the source.

The target of this assay is T1, mGluR2 receptor (metabotropic glutamate receptor 2) (Homo sapiens, UniProt Q14416).
T1 construct: expressed in transfected cells
Kind of assay: mGluR2 Potentiator Screen, FLIPR, EC10-EC20 glutamate challenge. The assay is classed as cell-based. Particulars: read-out: EC50. The method, boiled down: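 HEK cells stably co-expressing mGluR2 and Gα15, kept glutamine-free overnight, were loaded with Fluo-4 plus probenecid and GPT/pyruvate. Compounds (top 10 μM) were added ≥30 min before an EC10–EC20 glutamate challenge. Peak FLIPR fluorescence ratios were curve-fitted, excluding points above maximal effect, with maxima from on-plate standards.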

T1 sequence (Q14416 19-872, species assumed): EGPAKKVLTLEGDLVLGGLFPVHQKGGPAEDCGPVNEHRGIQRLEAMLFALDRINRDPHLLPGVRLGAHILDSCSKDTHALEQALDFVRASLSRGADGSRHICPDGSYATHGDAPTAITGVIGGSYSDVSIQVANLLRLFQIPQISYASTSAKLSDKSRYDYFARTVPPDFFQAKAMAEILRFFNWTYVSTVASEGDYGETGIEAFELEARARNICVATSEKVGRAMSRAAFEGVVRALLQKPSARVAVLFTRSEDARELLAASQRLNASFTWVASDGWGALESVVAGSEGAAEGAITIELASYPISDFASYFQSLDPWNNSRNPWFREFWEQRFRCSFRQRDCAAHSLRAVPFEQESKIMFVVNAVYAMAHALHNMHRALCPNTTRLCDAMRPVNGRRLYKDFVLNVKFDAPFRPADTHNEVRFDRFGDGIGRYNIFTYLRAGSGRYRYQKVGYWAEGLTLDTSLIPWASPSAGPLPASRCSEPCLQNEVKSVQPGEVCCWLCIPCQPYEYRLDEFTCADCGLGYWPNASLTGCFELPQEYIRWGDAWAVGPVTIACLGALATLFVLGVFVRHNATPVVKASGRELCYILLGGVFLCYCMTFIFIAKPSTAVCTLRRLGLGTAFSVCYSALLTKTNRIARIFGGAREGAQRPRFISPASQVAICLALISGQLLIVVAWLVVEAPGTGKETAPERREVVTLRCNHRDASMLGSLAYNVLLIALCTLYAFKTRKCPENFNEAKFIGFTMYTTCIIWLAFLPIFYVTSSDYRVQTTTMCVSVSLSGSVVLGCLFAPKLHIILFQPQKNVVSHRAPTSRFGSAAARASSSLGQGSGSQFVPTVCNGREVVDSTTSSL

As usually defined, the pEC50 is −log10 of the EC50, conventionally taken in molar units. In the case of `C[C@@H]1CN(Cc2ccc(C3CCN(Cc4nc5ccccc5n4C)CC3)cc2)C[C@H](C)O1` [compound 455], the pEC50 was 5.59.

As for `Cn1c(CN2CCC(c3ccc(Cl)cc3F)CC2)nc2cc(F)ccc21` [compound 458], the negative-log EC50 (pEC50) is 7.38.

Consider `Cn1c(CN2CC[C@@H]3c4ccccc4OC[C@H]3C2)nc2ccccc21` [compound 470], for which the pEC50 was 5.82.

In the case of `Cn1c(CN2CC[C@H]3c4ccccc4OC[C@H]3C2)nc2ccccc21` [compound 471], the pEC50 is 5.68.

As for `CC1CN(Cc2nc3ccccc3n2C)CCC1c1ccc(OC(F)(F)F)cc1F` (centres unmarked) [compound 474], the negative logarithm of the EC50 (pEC50) is 7.12.

As to “(2-((4-(2-Fluorophenyl)piperidin-1-yl)methyl)-1-methyl-1H-benzo[d]imidazol-5-yl)methanol [Entry 297]”, the pEC50 was 6.04.

On to “Methyl 2-((4-(2-methoxyphenyl)piperidin-1-yl)methyl)-1-methyl-1H-benzo[d]imidazole-5-carboxylate [Entry 296]”, for which the pEC50 was 6.38. The negative-log EC50 (pEC50) (listed as 11) is 5.44.
